Measurements taken from patent publication EP4610269A1, “UROKINASE PLASMINOGEN ACTIVATOR SURFACE RECEPTOR (UPAR) LIGANDS FOR DIAGNOSTIC OR THERAPEUTIC USE” (3B Pharmaceuticals GmbH, priority 2024, dated 2025).
Where a SMILES comes first, the peptide text is derived from it. Bridges are numbered along the chain shown (N, C = ends). [ ]: non-standard residue; d: D form. The star is where a group is joined. DOTA = O=C(O)CN1CCN(CC(=O)O)CCN(CC(=O)*)CCN(CC(=O)O)CC1; Phe(2,4-Cl2) = N[C@@H](Cc1ccc(Cl)cc1Cl)C(=O)O; Phe(4-NH2) = Nc1ccc(C[C@H](N)C(=O)O)cc1; Pro(4S-NH2) = N[C@@H]1CN[C@H](C(=O)O)C1; Pro(4R-NH2) = N[C@H]1CN[C@H](C(=O)O)C1; Ser(ΨH,HPro) = O=C(O)[C@@H]1COCN1; Hyp = O=C(O)[C@@H]1C[C@@H](O)CN1; Pentanoyl(4-Me) = CC(C)CCC(=O)*; Cit = NC(=O)NCCC[C@H](N)C(=O)O; dNva = CCC[C@@H](N)C(=O)O; NMeA = CN[C@@H](C)C(=O)O; Nle = CCCC[C@H](N)C(=O)O; Nva = CCC[C@H](N)C(=O)O; Hexanoyl = CCCCCC(=O)*; Pentanoyl = CCCCC(=O)*

Key:
[1] = target: T1, uPAR-expressing HEC-265 human endometrial adenocarcinoma cells (Homo sapiens, UniProt Q03405); assay: Competitive FACS binding assay; conditions: pIC50 category of FACS binding
T1 construct: Cell surface uPAR-expressing HEC-265 human endometrial adenocarcinoma cells; host or cells: HEC-265
Method in brief: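 Competitive displacement of a 10 nM biotinylated peptide from HEC-265 cells (1 h, 4 °C, PBS/1% BSA), detected via APC-streptavidin by flow cytometry. pIC50 from four-parameter logistic fit of median fluorescence versus concentration.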

human uPAR (uPAR-Fc) = target: T2, human uPAR (uPAR-Fc) (Homo sapiens, UniProt Q03405); assay: Surface plasmon resonance (SPR) assay, single cycle kinetics; type: binding; conditions: pKD category for uPAR SPR activity assay; uPAR-Fc on Protein A-Chip, 25°C; read-out: pKD CAT (converted)
T2 construct: comprising amino acids Leu23-Arg303 according to UniProt entry Q03405.1; purchased R&D Systems 10378-UK-100
Method in brief: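 uPAR-Fc (Leu23-Arg303 extracellular domains, human IgG1 Fc) captured on Protein A chip to ~2000 RU; single-cycle kinetics at 25°C in HEPES running buffer pH 7.4 with 0.1% DMSO. KD from double-referenced sensorgrams fitted to 1:1 Langmuir model, reported as pKD.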

T2 sequence (Q03405 23-303): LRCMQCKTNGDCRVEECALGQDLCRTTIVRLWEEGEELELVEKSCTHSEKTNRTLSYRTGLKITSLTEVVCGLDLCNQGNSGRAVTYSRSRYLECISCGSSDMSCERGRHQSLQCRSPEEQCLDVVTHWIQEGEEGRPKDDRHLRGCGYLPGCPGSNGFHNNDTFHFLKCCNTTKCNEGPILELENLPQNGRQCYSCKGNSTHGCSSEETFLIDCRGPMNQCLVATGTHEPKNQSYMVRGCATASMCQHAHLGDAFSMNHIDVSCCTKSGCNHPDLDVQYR
T1 sequence (Q03405 23-335): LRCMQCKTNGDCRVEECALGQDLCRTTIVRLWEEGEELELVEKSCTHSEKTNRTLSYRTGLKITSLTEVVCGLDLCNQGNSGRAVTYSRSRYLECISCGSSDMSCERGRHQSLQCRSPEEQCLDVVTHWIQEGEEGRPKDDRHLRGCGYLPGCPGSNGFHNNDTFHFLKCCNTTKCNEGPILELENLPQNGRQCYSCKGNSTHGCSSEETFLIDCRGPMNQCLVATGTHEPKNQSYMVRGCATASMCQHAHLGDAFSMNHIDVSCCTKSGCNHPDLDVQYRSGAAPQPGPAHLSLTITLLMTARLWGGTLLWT

| SMILES | IC50 [1] | Kd (human uPAR (uPAR-Fc)) |
| --- | --- | --- |
| CCCCC(=O)N[C@H]1CSSC[C@@H](C(N)=O)NC(=O)[C@H](CCC)NC(=O)[C@H]([C@@H](C)CC)NC(=O)[C@H](C)N(C)C(=O)[C@@H]2CCCN2C(=O)[C@H](Cc2ccccc2)NC(=O)[C@H](Cc2ccc(O)cc2)NC(=O)[C@H](CCCCNC(=O)CN2CCN(CC(=O)O)CCN(CC(=O)O)CCN(CC(=O)O)CC2)NC(=O)[C@H](CCCNC(N)=O)NC1=O [UPAR-316, Pent-[Cys-Cit-Lys(DOTA)-Tyr-Phe-Pro-Nma-Ile-Nva-Cys]-NH2] (Pentanoyl-C[Cit]K(DOTA)YFP[NMeA]I[Nva]C-NH2; disulfide 1-10) | 12.6 to 31.6 nM | 1.58 to 10 nM |
| CC[C@H](C)[C@@H]1NC(=O)[C@@H](C)NC(=O)[C@H](C)NC(=O)[C@H](Cc2ccccc2)NC(=O)[C@H](Cc2ccc(O)cc2)NC(=O)[C@H](CCC(N)=O)NC(=O)[C@H](CCCNC(N)=O)NC(=O)[C@@H](NC(=O)CCC(C)C)CSSC[C@@H](C(N)=O)NC(=O)[C@H](CC(C)C)NC1=O [UPAR-319, iHex-[Cys-Cit-Gln-Tyr-Phe-Ala-ala-Ile-Leu-Cys]-NH2] ({Pentanoyl(4-Me)}-C[Cit]QYFA[dA]ILC-NH2; disulfide 1-10) | 39.8 to 100 nM | 10 to 100 nM |
| CCCCC(=O)N[C@H]1CSSC[C@@H](C(N)=O)NC(=O)[C@H](CCC)NC(=O)[C@H]([C@@H](C)CC)NC(=O)[C@@H](CCC)NC(=O)[C@@H]2CCCN2C(=O)[C@H](Cc2ccccc2)NC(=O)[C@H](Cc2ccc(O)cc2)NC(=O)[C@H](CCC(N)=O)NC(=O)[C@H](CCCNC(=N)N)NC1=O [UPAR-322, Pent-[Cys-Arg-Gln-Tyr-Phe-Pro-nva-Ile-Nva-Cys]-NH2] (Pentanoyl-CRQYFP[dNva]I[Nva]C-NH2; disulfide 1-10) | 12.6 to 31.6 nM | 1.58 to 10 nM |
| CCCC[C@@H]1NC(=O)[C@H](CCCNC(=N)N)NC(=O)[C@@H](NC(=O)[C@H](CC(C)C)NC(=O)[C@H](CC(=O)O)NC(C)=O)CSSC[C@H](C(N)=O)NC(=O)[C@H](CC(C)C)NC(=O)[C@H]([C@@H](C)CC)NC(=O)[C@H](C)NC(=O)[C@@H]2CCCN2C(=O)[C@H](Cc2ccccc2)NC(=O)[C@H](Cc2ccc(O)cc2)NC1=O [UPAR-323, Ac-Asp-Leu-[Cys-Arg-Nle-Tyr-Phe-Pro-Ala-Ile-Leu-cys]-NH2] (Ac-DLCR[Nle]YFPAIL[dC]-NH2; disulfide 3-12) | 12.6 to 31.6 nM | 1.58 to 10 nM |
| CCCCC(=O)N[C@H]1CSSC[C@@H](C(N)=O)NC(=O)[C@H](CCC)NC(=O)[C@H]([C@@H](C)CC)NC(=O)[C@@H]2C[C@H](N)CN2C(=O)[C@@H]2CCCN2C(=O)[C@H](Cc2ccccc2)NC(=O)[C@H](Cc2ccc(O)cc2)NC(=O)[C@H](CCCCNC(=O)CN2CCN(CC(=O)O)CCN(CC(=O)O)CCN(CC(=O)O)CC2)NC(=O)[C@H](CCCNC(N)=O)NC1=O [UPAR-325, Pent-[Cys-Cit-Lys(DOTA)-Tyr-Phe-Pro-4Ap-Ile-Nva-Cys]-NH2] (Pentanoyl-C[Cit]K(DOTA)YFP[Pro(4S-NH2)]I[Nva]C-NH2; disulfide 1-10) | ≤ 10 nM | < 1.58 nM |

Other lines, results leading:

| IC50 [1] | Kd (human uPAR (uPAR-Fc)) | SMILES |
| --- | --- | --- |
| ≤ 10 nM | < 1.58 nM | CCCCC(=O)N[C@H]1CSSC[C@@H](C(N)=O)NC(=O)[C@H](CCC)NC(=O)[C@H]([C@@H](C)CC)NC(=O)[C@@H]2C[C@@H](N)CN2C(=O)[C@@H]2CCCN2C(=O)[C@H](Cc2ccccc2)NC(=O)[C@H](Cc2ccc(O)cc2)NC(=O)[C@H](CCCNC(=N)N)NC(=O)[C@H](CCCNC(=N)N)NC1=O [UPAR-313, Pent-[Cys-Arg-Arg-Tyr-Phe-Pro-Tap-Ile-Nva-Cys]-NH2] (Pentanoyl-CRRYFP[Pro(4R-NH2)]I[Nva]C-NH2; disulfide 1-10) |
| ≤ 10 nM | < 1.58 nM | CC[C@H](C)[C@@H]1NC(=O)[C@@H](C)NC(=O)[C@@H]2CCCN2C(=O)[C@H](Cc2ccccc2)NC(=O)[C@H](Cc2ccc(N)cc2)NC(=O)[C@H](CCC(N)=O)NC(=O)[C@H](CCCNC(N)=O)NC(=O)[C@@H](NC(=O)CCC(C)C)CSSC[C@@H](C(N)=O)NC(=O)[C@H](CC(C)C)NC1=O [UPAR-314, iHex-[Cys-Cit-Gln-Aph-Phe-Pro-ala-Ile-Leu-Cys]-NH2] ({Pentanoyl(4-Me)}-C[Cit]Q[Phe(4-NH2)]FP[dA]ILC-NH2; disulfide 1-10) |
| ≤ 10 nM | < 1.58 nM | CCCCC(=O)N[C@H]1CSSC[C@@H](C(N)=O)NC(=O)[C@H](CCC)NC(=O)[C@H]([C@@H](C)CC)NC(=O)[C@@H]2C[C@@H](O)CN2C(=O)[C@@H]2CCCN2C(=O)[C@H](Cc2ccc(Cl)cc2Cl)NC(=O)[C@H](Cc2ccc(O)cc2)NC(=O)[C@H](CCCCNC(=O)CN2CCN(CC(=O)O)CCN(CC(=O)O)CCN(CC(=O)O)CC2)NC(=O)[C@H](CCCNC(N)=O)NC1=O [UPAR-315, Pent-[Cys-Cit-Lys(DOTA)-Tyr-Egm-Pro-Hyp-Ile-Nva-Cys]-NHz] (Pentanoyl-C[Cit]K(DOTA)Y[Phe(2,4-Cl2)]P[Hyp]I[Nva]C-NH2; disulfide 1-10) |
| ≤ 10 nM | < 1.58 nM | CCCCCC(=O)N[C@H](C(=O)N[C@@H](CC(C)C)C(=O)N[C@H]1CSSC[C@@H](C(N)=O)NC(=O)[C@H](CC(C)C)NC(=O)[C@H]([C@@H](C)CC)NC(=O)[C@H](C)NC(=O)[C@@H]2CCCN2C(=O)[C@H](Cc2ccccc2)NC(=O)[C@H](Cc2ccc(O)cc2)NC(=O)[C@H](CC(C)C)NC(=O)[C@H](CC(=O)O)NC1=O)[C@@H](C)O [UPAR-318, Hex-Thr-Leu-[Cys-Asp-Leu-Tyr-Phe-Pro-Ala-Ile-Leu-Cys]-NH2] (Hexanoyl-TLCDLYFPAILC-NH2; disulfide 3-12) |
| ≤ 10 nM | < 1.58 nM | CCCCC(=O)N[C@H]1CSSC[C@@H](C(N)=O)NC(=O)[C@H](CCC)NC(=O)[C@H]([C@@H](C)CC)NC(=O)[C@@H]2C[C@@H](O)CN2C(=O)[C@@H]2CCCN2C(=O)[C@H](Cc2ccccc2)NC(=O)[C@H](Cc2ccc(N)cc2)NC(=O)[C@H](CCCCNC(=O)CN2CCN(CC(=O)O)CCN(CC(=O)O)CCN(CC(=O)O)CC2)NC(=O)[C@H](CCCNC(N)=O)NC1=O [UPAR-320, Pent-[Cys-Cit-Lys(DOTA)-Aph-Phe-Pro-Hyp-Ile-Nva-Cys]-NH2] (Pentanoyl-C[Cit]K(DOTA)[Phe(4-NH2)]FP[Hyp]I[Nva]C-NH2; disulfide 1-10) |
| ≤ 10 nM | 1.58 to 10 nM | CC[C@H](C)[C@@H]1NC(=O)[C@@H](C)NC(=O)[C@@H]2COCN2C(=O)[C@H](Cc2ccccc2)NC(=O)[C@H](Cc2ccc(O)cc2)NC(=O)[C@H](CCC(N)=O)NC(=O)[C@H](CCCNC(N)=O)NC(=O)[C@@H](NC(=O)CCC(C)C)CSSC[C@@H](C(N)=O)NC(=O)[C@H](CC(C)C)NC1=O [UPAR-321, iHex-[Cys-Cit-Gln-Tyr-Phe-Oxa-ala-Ile-Leu-Cys]-NH2] ({Pentanoyl(4-Me)}-C[Cit]QYF[Ser(ΨH,HPro)][dA]ILC-NH2; disulfide 1-10) |
| ≤ 10 nM | < 1.58 nM | CCCCC(=O)N[C@H]1CSSC[C@@H](C(N)=O)NC(=O)[C@H](CCC)NC(=O)[C@H]([C@@H](C)CC)NC(=O)[C@@H]2C[C@@H](O)CN2C(=O)[C@@H]2CCCN2C(=O)[C@H](Cc2ccccc2)NC(=O)[C@H](Cc2c[nH]cn2)NC(=O)[C@H](CCCCNC(=O)CN2CCN(CC(=O)O)CCN(CC(=O)O)CCN(CC(=O)O)CC2)NC(=O)[C@H](CCCNC(N)=O)NC1=O [UPAR-324, Pent-[Cys-Cit-Lys(DOTA)-His-Phe-Pro-Hyp-Ile-Nva-Cys]-NH2] (Pentanoyl-C[Cit]K(DOTA)HFP[Hyp]I[Nva]C-NH2; disulfide 1-10) |
